This note sets out measurements from PMC6591251, “Discovery of potent necroptosis inhibitors targeting RIPK1 kinase activity for the treatment of inflammatory disorder and cancer metastasis” (Cell Death & Disease, 2019).

In general, inhibition refers to the relative decrease from the control value, in per cent. A word on the EC50: it is the concentration giving half of the maximal effect.

Molecules are shown by their SMILES.

Experiment [1] concerns the target TRKA (Homo sapiens, UniProt P04629). The experiment is described as follows: RBC kinase panel. It is filed as biochemical. On the set-up: purchased Reaction Biology Corporation. The protocol:
(§1) PK68 was tested at 1 μM in duplicate against a panel of 369 human kinases at Reaction Biology Corporation. Results are viewed in the human kinome phylogenetic tree.
(§2) ^a Compound PK68 was tested at 1 μM in duplicate against 369 kinases using the RBC kinase panel service of Reaction Biology Corporation. All the ATP concentrations used were 10 μM. […] Full protocol details are available at http://www.reactionbiology.com.

Experiment [2] concerns the target TNIK (Homo sapiens, UniProt Q9UKE5). Kind of experiment: RBC kinase panel. The arrangement: purchased Reaction Biology Corporation. It is filed as biochemical. The protocol:
as §1, §2

Experiment [3] has as its system human and mouse cells. The experiment is described as follows: RIPK1-dependent necroptosis (abstract summary). It is filed as cell-based. As to conditions: read-out: EC50, inhibition of RIPK1-dependent necroptosis. The text has this:
Necroptosis is a form of regulated necrosis controlled by receptor-interacting kinase 1 (RIPK1 or RIP1), RIPK3 (RIP3), and pseudokinase mixed lineage kinase domain-like protein (MLKL). […] Herein, we discovered the small-molecule PK6 and its derivatives as a novel class of necroptosis inhibitors that directly block the kinase activity of RIPK1. […] PK68 efficiently blocks cellular activation of RIPK1, RIPK3, and MLKL upon necroptosis stimuli. […] Importantly, PK68 provides strong protection against TNF-α-induced systemic inflammatory response syndrome in vivo.

Experiment [4] relates to B16-F10 or RFP-LL/2 cells. The experiment is described as follows: Proliferation rate and invasion ability without endothelial monolayer. As to conditions: B16-F10 or RFP-LL/2, in vitro. It is filed as cell-based, mouse. The protocol:
(§3) Studies have shown that RIPK1 kinase activity is involved in the promotion of tumor metastasis through death receptor 6-dependent necroptosis of endothelial cells[22] or VEGF-dependent activation of vascular permeability. We thus evaluated the therapeutic effect of PK68 on lung metastasis of mouse melanoma B16-F10 cells in vivo. […] After 2 weeks, the metastasis of B16-F10 cells was measured by histological analysis and assessed as the number of metastasis nodules in the lung. […] Two weeks after intravenous injection of RFP-LL/2 cells, RFP^+ LL/2 cells were isolated from the tumor tissues by flow cytometer sorting and no signal of phosphorylated RIPK1 was detected in these tumors cells (Supplementary Fig. 22). Six hours after intravenous injection of RFP-LL/2 cells into C57BL/6 mice, the RFP-LL/2 cells have extravasated through blood vessels into the lung (Supplementary Fig. 23). […] Further, we evaluated the effect of PK68 on the tumor cell transmigration across the cultured endothelium. We isolated CD31^+ endothelial cells from the lungs and performed the transendothelial migration assay as previously reported. […]
(A-B) B16-F10 and RFP-LL/2 cells were pretreated with indicated compounds for 1h and then cell viability was measured by cell Titer-Glo. (C) B16-F10 and RFP-LL/2 cells were pre-treated with indicated compounds and invasion ability was measured by the transwell assay.

The test system of experiment [5] is B16-F10 cells. Kind of experiment: Lung metastasis model of melanoma cells. It is filed as in vivo, C57BL/6 mice. Conditions: 5 mg/kg ip pre-treatment; 14 days. The protocol:
as §3, with “22).” for “22). Six hours after intravenous injection of RFP-LL/2 cells into C57BL/6 mice, the RFP-LL/2 cells have extravasated through blood vessels into the lung (Supplementary Fig. 23).”, “endothelium.” for “endothelium. We isolated CD31^+ endothelial cells from the lungs and performed the transendothelial migration assay as previously reported.”
(§4) C57BL/6 mice bearing B16-F10 cells (a, b) or RFP-labeled LL/2 cells (c, d) were treated with vehicle, PK68 (5 mg/kg) or Nec-1s (5 mg/kg) as described in the Materials and methods. a, b Tumor metastasis of B16-F10 was measured by the numbers of metastasis nodules and histological analysis. […] The numbers of metastasis nodules on lung surfaces (b) in the metastasis model of B16-F10 were counted with the microscope. c, d Tumor metastasis of RFP-labeled LL/2 was calculated by RFP […] intensity. […]

Experiment [6] relates to RFP-LL/2 cells. The experiment is described as follows: Lung metastasis model of RFP-labeled Lewis lung carcinoma cells. Conditions: 5 mg/kg ip pre-treatment; 14 days. It is filed as in vivo, C57BL/6 mice. The protocol: as §3, with “22).” for “22). Six hours after intravenous injection of RFP-LL/2 cells into C57BL/6 mice, the RFP-LL/2 cells have extravasated through blood vessels into the lung (Supplementary Fig. 23).”, “endothelium.” for “endothelium. We isolated CD31^+ endothelial cells from the lungs and performed the transendothelial migration assay as previously reported.”
as §4

Experiment [7] relates to RFP-LL/2 cells. The experiment is described as follows: Early metastasis/extravasation of tumor cells, 6 h after injection. In kind it is in vivo, C57BL/6 mice. As to conditions: 5 mg/kg ip. The protocol:
as §3, with “22).” for “22). Six hours after intravenous injection of RFP-LL/2 cells into C57BL/6 mice, the RFP-LL/2 cells have extravasated through blood vessels into the lung (Supplementary Fig. 23).”, “endothelium.” for “endothelium. We isolated CD31^+ endothelial cells from the lungs and performed the transendothelial migration assay as previously reported.”
Melanoma B16-F10 cells (0.5 × 10^6 cells) or RFP-labeled lung carcinoma LL/2 cells (0.3 × 10^6 cells) were injected into C57BL/6 mice in a volume of 200 μl PBS via the tail intravenous injection. […] The lung metastasis of B16-F10 cells in mice was determined by accounting the number of metastasis nodules with a dissecting microscope (Leica) and histologic analysis. The lung metastasis of LL/2 cells in mice was analyzed by measuring RFP fluorescence intensities with the PerkinElmer IVIS Lumina II. […]

Chain of TNIK (Q9UKE5 whole entry): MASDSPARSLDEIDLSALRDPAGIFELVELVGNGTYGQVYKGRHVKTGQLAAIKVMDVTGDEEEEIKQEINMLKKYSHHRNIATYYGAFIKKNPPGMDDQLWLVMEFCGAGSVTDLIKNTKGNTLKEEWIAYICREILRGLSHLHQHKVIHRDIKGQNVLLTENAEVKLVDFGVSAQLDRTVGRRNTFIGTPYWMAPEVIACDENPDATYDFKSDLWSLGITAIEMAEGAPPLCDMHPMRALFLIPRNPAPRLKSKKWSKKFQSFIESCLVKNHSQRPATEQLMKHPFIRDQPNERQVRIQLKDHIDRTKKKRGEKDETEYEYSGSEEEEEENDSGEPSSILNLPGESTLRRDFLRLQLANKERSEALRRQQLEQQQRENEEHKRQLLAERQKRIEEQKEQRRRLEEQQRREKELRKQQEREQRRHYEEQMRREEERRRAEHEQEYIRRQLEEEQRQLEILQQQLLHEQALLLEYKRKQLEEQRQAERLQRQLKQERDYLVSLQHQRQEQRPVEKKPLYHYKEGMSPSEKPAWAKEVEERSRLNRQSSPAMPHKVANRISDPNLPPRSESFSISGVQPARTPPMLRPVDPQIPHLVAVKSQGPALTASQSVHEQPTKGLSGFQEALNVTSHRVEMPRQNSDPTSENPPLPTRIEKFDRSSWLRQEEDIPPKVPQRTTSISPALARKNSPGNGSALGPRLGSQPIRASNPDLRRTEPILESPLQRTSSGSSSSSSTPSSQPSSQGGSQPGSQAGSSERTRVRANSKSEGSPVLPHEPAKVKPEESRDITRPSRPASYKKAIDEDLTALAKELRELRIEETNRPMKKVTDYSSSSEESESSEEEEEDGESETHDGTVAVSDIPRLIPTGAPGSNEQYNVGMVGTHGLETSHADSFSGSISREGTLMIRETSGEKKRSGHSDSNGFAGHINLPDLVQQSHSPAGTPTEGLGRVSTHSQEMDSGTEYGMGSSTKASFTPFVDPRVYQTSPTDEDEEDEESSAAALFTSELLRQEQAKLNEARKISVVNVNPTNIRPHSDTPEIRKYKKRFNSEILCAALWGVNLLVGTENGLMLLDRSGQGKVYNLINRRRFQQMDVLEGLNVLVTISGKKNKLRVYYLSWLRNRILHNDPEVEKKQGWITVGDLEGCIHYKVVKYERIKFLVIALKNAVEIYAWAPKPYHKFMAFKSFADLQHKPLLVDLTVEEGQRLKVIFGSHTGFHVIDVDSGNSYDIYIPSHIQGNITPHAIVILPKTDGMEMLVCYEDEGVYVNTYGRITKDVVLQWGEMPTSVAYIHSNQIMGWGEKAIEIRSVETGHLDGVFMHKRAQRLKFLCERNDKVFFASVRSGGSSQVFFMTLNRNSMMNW
Chain of TRKA (P04629 33-796): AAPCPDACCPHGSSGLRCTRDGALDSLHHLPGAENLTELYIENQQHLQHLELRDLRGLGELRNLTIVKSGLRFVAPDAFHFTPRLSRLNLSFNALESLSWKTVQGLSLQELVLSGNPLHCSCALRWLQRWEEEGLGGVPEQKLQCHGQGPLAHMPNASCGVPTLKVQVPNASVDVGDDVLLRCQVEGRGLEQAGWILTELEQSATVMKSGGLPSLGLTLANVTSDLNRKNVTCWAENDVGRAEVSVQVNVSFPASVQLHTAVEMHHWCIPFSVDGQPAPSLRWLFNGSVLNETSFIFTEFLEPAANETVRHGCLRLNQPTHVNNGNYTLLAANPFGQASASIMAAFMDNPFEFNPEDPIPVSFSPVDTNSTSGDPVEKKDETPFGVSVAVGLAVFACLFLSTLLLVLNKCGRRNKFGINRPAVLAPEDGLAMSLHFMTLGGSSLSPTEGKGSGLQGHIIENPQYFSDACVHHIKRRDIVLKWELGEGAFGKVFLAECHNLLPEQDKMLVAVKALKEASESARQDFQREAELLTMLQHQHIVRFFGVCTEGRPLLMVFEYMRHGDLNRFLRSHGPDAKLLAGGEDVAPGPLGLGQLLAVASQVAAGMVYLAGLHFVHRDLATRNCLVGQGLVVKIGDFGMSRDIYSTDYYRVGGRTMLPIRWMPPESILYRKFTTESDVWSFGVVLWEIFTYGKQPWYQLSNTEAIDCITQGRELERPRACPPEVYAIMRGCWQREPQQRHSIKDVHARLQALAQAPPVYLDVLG

On to `CC(=O)Nc1nc2ccc(-c3cnc(C)c(NC(=O)OC4CCCCC4)c3)cc2s1` [PK68, cyclohexyl (5-(2-acetamidobenzo[d]thiazol-6-yl)-2-methylpyridin-3-yl)carbamate], for which the Activity% in experiment [1] (1 μM, ATP 10 μM, Data1, Data2) turned out to be 28.42%; in experiment [2] (1 μM, ATP 10 μM, Data1, Data2), 38.77%. Further, the activity at 1 µM in experiment [1] (1 μM, ATP 10 μM, Data1, Data2) turned out to be 29.1%; in experiment [2] (1 μM, ATP 10 μM, Data1, Data2), 39%. For the same molecule, the inhibition at 1 µM in experiment [1] (at 1000 nM) and in experiment [2] (at 1000 nM) was > 50% throughout. The EC50 in experiment [3] lay in the range of 14 to 22 nM. Besides, the “proliferation rate and invasion ability” value in experiment [4] is “no obvious influence”. Also, the “number of pulmonary metastasis nodules” value in experiment [5] is “significantly reduced”. Besides, in experiment [6], the “lung metastasis of RFP-LL/2 cells” value is “markedly decreased”. For the same molecule, the “number of RFP-LL/2 cells in the lung 6 h after injection” value in experiment [7] is reported as “decreased number”.
